Numbers after ± are expanded uncertainties.
Assays:
[1] = 101.33 kPa, Liquid, Vibrating tube method
[2] = activity coefficient (dimensionless); of the first substance listed, at infinite dilution; xn = mol fraction of the nth substance listed; conditions: Liquid, Chromatography, x1 = 0

`CCCCCCn1cc[n+](C)c1.N#C[B-](C#N)(C#N)C#N` [1-hexyl-3-methylimidazolium tetracyanoborate] gave a mass density ([1]; 318.15 K) of 976.11 ± 0.23 kg/m3, a mass density ([1]; 328.15 K) of 969.06 ± 0.23 kg/m3 and a mass density ([1]; 338.15 K) of 962.08 ± 0.23 kg/m3. It also gave a mass density ([1]; 348.15 K) of 955.16 ± 0.23 kg/m3, a mass density ([1]; 358.15 K) of 948.32 ± 0.23 kg/m3 and a mass density ([1]; 368.15 K) of 941.2 ± 0.23 kg/m3.
With `O` [water] + CCCCCCn1cc[n+](C)c1.N#C[B-](C#N)(C#N)C#N the activity coefficient ([2]; 318.15 K) was 2.05 ± 0.09, the activity coefficient ([2]; 328.15 K) was 1.87 ± 0.08 and the activity coefficient ([2]; 338.15 K) was 1.7 ± 0.07. It also gave an activity coefficient ([2]; 348.15 K) of 1.55 ± 0.06, an activity coefficient ([2]; 358.15 K) of 1.42 ± 0.05 and an activity coefficient ([2]; 368.15 K) of 1.33 ± 0.05.
In the case of `CCCO` [propan-1-ol] + CCCCCCn1cc[n+](C)c1.N#C[B-](C#N)(C#N)C#N, the activity coefficient ([2]; 318.15 K) is reported as 1.19 ± 0.04, the activity coefficient ([2]; 328.15 K) is reported as 1.1 ± 0.03 and the activity coefficient ([2]; 338.15 K) is reported as 1.02 ± 0.03. It also gave an activity coefficient ([2]; 348.15 K) of 0.965 ± 0.026, an activity coefficient ([2]; 358.15 K) of 0.913 ± 0.026 and an activity coefficient ([2]; 368.15 K) of 0.864 ± 0.027.
For `CCOCC` [diethyl ether] + CCCCCCn1cc[n+](C)c1.N#C[B-](C#N)(C#N)C#N, the activity coefficient ([2]; 318.15 K) was 1.59 ± 0.06, the activity coefficient ([2]; 328.15 K) was 1.62 ± 0.07 and the activity coefficient ([2]; 338.15 K) was 1.64 ± 0.07. It also gave an activity coefficient ([2]; 348.15 K) of 1.68 ± 0.07, an activity coefficient ([2]; 358.15 K) of 1.71 ± 0.07 and an activity coefficient ([2]; 368.15 K) of 1.76 ± 0.07.
In the case of `CCOC(C)=O` [ethyl acetate] + CCCCCCn1cc[n+](C)c1.N#C[B-](C#N)(C#N)C#N, the activity coefficient ([2]; 318.15 K) is reported as 0.664 ± 0.03, the activity coefficient ([2]; 328.15 K) is reported as 0.684 ± 0.03 and the activity coefficient ([2]; 338.15 K) is reported as 0.701 ± 0.029. It also gave an activity coefficient ([2]; 348.15 K) of 0.715 ± 0.029, an activity coefficient ([2]; 358.15 K) of 0.733 ± 0.029 and an activity coefficient ([2]; 368.15 K) of 0.751 ± 0.029.
With `CCCCC` [pentane] + CCCCCCn1cc[n+](C)c1.N#C[B-](C#N)(C#N)C#N the activity coefficient ([2]; 318.15 K) was 8.63 ± 0.4, the activity coefficient ([2]; 328.15 K) was 8.22 ± 0.38 and the activity coefficient ([2]; 338.15 K) was 7.85 ± 0.36. It also gave an activity coefficient ([2]; 348.15 K) of 7.61 ± 0.35, an activity coefficient ([2]; 358.15 K) of 7.33 ± 0.34 and an activity coefficient ([2]; 368.15 K) of 7.13 ± 0.33.
With `CCC(C)(C)OC` [2-methoxy-2-methylbutane] + CCCCCCn1cc[n+](C)c1.N#C[B-](C#N)(C#N)C#N the activity coefficient ([2]; 318.15 K) was 2.19 ± 0.1, the activity coefficient ([2]; 328.15 K) was 2.24 ± 0.1 and the activity coefficient ([2]; 338.15 K) was 2.27 ± 0.1. For the same compound, the activity coefficient ([2]; 348.15 K) was 2.33 ± 0.11, the activity coefficient ([2]; 358.15 K) was 2.36 ± 0.11 and the activity coefficient ([2]; 368.15 K) was 2.42 ± 0.11.

— the NIST ThermoML archive (doi:10.1016/j.jct.2011.11.025)
